Source: patent publication US20240016788A1, “PHARMACEUTICAL COMPOSITION FOR PREVENTING OR TREATING DIABETIC AND POSTMENOPAUSAL OSTEOPOROSIS, CONTAINING ADIPORON” (PnP Biopharm Co., Ltd., priority 2020, published 2024)

Key:
[1] = tested on: ovariectomized C57BL/6 mice; assay: Micro-CT of ilium (femur) and lumbar vertebra 5, ovariectomized mice; format: in vivo; conditions: 6 weeks
Description: 7 weeks after ovariectomization or sham surgery of 7-week-old C57BL/6 mice, normal feed group (adiporon non-administered group; control group) administration group, 2.5 mg/kg day or 25 mg/kg day, respectively Feed comprising adiporon was consumed for 6 weeks from 14 weeks of age. Body weight was measured every week during the experiment period, and the experiment was conducted after 6 weeks of administration. The imaging was performed with micro-CT (Skyscan 1172, Belgium), the tube voltage was 60 kV, the tube current was 167 uA, 0.5 mm aluminum filtration was used, and the pixel size was 5.9 μm. For the shooting angle, a 2-dimensional image was reconstructed with Nrecon Reconstruction (Skyscan, Belgium). For 3D image analysis, CTAn (Skyscan, Belgium) was used, images were obtained by rotating 360°, and exposure time was 440 ms. A total of 7 types of indicators were used in this invention. BMD (bone mineral density, bone density) was measured based on phantoms of 0.25 g/cm^3 and 0.75 g/cm^3. BV/TV (Bone volume/Total volume, percent bone volume, %) is the ratio of voxels representing the solid region out of the total voxels present in the binarized and surfaced volume of interest, and it means the ratio occupied by bone trabeculae within the volume of interest, and i.s (Interception surfaces, mm2) means the generation of new bone. i.s (Interception surfaces, mm^2) means the creation of new bone. BS/BV (Bone surface/Bone volume, bone specific surface, mm^−1) is the ratio of the voxel surface area to the number of voxels in the binarized solid region within the volume of interest and it means the ratio of the surface area of the trabecular bone to the volume of the trabecular bone. The lower the value, the higher the bone strength. Tb.Th (trabecular thickness, mm) is obtained by averaging the diameters of these spheres, after placing a sphere comprising the corresponding voxel for each voxel representing the solid region within the volume of interest so that the size of the sphere is the largest that includes only the solid region and it means the average thickness of the trabecular bone. After making it possible, it is obtained by averaging the diameters of these spheres, which means the average thickness of the trabecular bone. In the same way, using Tb.Sp (trabecular separation, mm), the average length between trabecular lines and Tb.N (trabecular number, mm^−1) were used to obtain the average number of trabecular lines.

[2] = tested on: ovariectomized C57BL/6 mice; assay: Serum ACP5/TRAP, osteocalcin and urine deoxypyridinoline by ELISA, ovariectomized mice; format: in vivo; conditions: for Increased concentration of deoxypyridinoline in urine: P<0.05
Description: 7 weeks after ovariectomization or sham surgery of 7-week-old C57BL/6 mice, normal feed group (adiporon non-administered group; control group) administration group, 2.5 mg/kg day or 25 mg/kg day, respectively Feed comprising adiporon was consumed for 6 weeks from 14 weeks of age. Body weight was measured every week during the experiment period, and the experiment was conducted after 6 weeks of administration. In both experiments, blood collected from each mouse was allowed to stand at room temperature for 30 minutes, and then centrifuged at 3000 rpm for 15 minutes to obtain serum. Blood levels of tartrate-resistant acid phosphatase (TRAP/ACP5) and osterocalcin concentration were measured by ELISA. In addition, 8-hydroxy-deoxyguanosine, a DNA damage marker caused by oxidative stress, and isoprostane, a marker of oxidative stress caused by lipid peroxidation caused by free fatty acids, and deoxypyridinoline (DPP), which indicates the function of osteoclasts, were measured in 24-hour urine concentrations by ELISA method.

[3] = vertebrae (lumbar vertebrae 5), adiporon 2.5 mg/kg day
[4] = vertebrae (lumbar vertebrae 5), adiporon 25 mg/kg day
[5] = adiporon 2.5 or 25 mg/kg day, dose not distinguished, ELISA

Cl.O=C(COc1ccc(C(=O)c2ccccc2)cc1)NC1CCN(Cc2ccccc2)CC1 [adiporon]
Bone mineral density indicator (micro-CT) ([1]; ilium, adiporon 2.5 mg/kg day): increased and improved
Bone surface indicator (micro-CT) ([1]; ilium, adiporon 2.5 mg/kg day): increased and improved
Bone volume indicator (micro-CT) ([1]; ilium, adiporon 2.5 mg/kg day): increased and improved
Trabecular number indicator (micro-CT) ([1]; ilium, adiporon 2.5 mg/kg day): increased and improved
Trabecular thickness indicator (micro-CT) ([1]; ilium, adiporon 2.5 mg/kg day): increased and improved
Bone mineral density indicator (micro-CT) ([1]; ilium, adiporon 25 mg/kg day): increased and improved
Bone surface indicator (micro-CT) ([1]; ilium, adiporon 25 mg/kg day): increased and improved
Bone volume indicator (micro-CT) ([1]; ilium, adiporon 25 mg/kg day): increased and improved
Trabecular number indicator (micro-CT) ([1]; ilium, adiporon 25 mg/kg day): increased and improved
Trabecular thickness indicator (micro-CT) ([1]; ilium, adiporon 25 mg/kg day): increased and improved
Bone mineral density indicator (micro-CT) [1, 3]: increased and improved
Bone surface indicator (micro-CT) [1, 3]: increased and improved
Bone volume indicator (micro-CT) [1, 3]: increased and improved
Trabecular number indicator (micro-CT) [1, 3]: increased and improved
Trabecular thickness indicator (micro-CT) [1, 3]: increased and improved
Bone mineral density indicator (micro-CT) [1, 4]: increased and improved
Bone surface indicator (micro-CT) [1, 4]: increased and improved
Bone volume indicator (micro-CT) [1, 4]: increased and improved
Trabecular number indicator (micro-CT) [1, 4]: increased and improved
Trabecular thickness indicator (micro-CT) [1, 4]: increased and improved
Increased concentration of deoxypyridinoline in urine ([2]; adiporon 2.5 mg/kg day vs not administered): significantly reduced
Increased concentration of deoxypyridinoline in urine ([2]; adiporon 25 mg/kg day vs not administered): significantly reduced
Decreased serum osteocalcin concentration [2, 5]: reversed
Serum ACP5/TRAP concentrations [2, 5]: no such change
